{
  "source": "patent US20200296959A1",
  "about": "“DISINFECTION AND/OR STERILIZATION OF AGRICULTURAL CROPS” (priority 2019, published 2020)",
  "system": "Bacillus atrophaeus spore strips",
  "assay": "Microbial decontamination barrel: sterilization of Steritest biological indicator spore strips",
  "method": "Barrel Setup: All cycles were performed using a 48.8 gallon steel barrel with an airtight lid sealed with a rubber gasket.\nBarrels were fitted with an SEC Sensor to monitor EO concentration throughout the cycle\nThe unit utilizes AN 7916 Anprolene gas release ampoules, which contain approximately 17.6 g of EO. The number of ampoules can be adjusted according to load weight.\nBarrels were fitted with an observation chamber containing a chemical integrator, referred to a dosimeter. This allows sterilization progress to be monitored in real time with no disruption to the cycle.\nAn external recirculating abator cartridge was attached to the lid of the barrel to neutralize EO when the cycle is complete.\nHumidichips, a Madgetech Datalogger, and a Steritest biological indicator including a Dosimeter and a Bacillus atrophaeus spore strip, were placed in the bottom of the barrel. An AN 7916 EO 17.6 g ampule was activated then placed in the bottom of the barrel.\nFurther, paper represents a reasonable proxy for agricultural materials such as hemp and marijuana, as all of these materials are all cellulosic materials.\nIn this example, the barrel was loaded with 150 lbs of paper. Humidichips, a Madgetech Datalogger, and a Steritest were placed in the middle of the load. The Barrel was filled to the top with cloth materials (which are also cellulosic materials). […]",
  "data": [
    {"smiles": "C1CO1", "note": "[ethylene oxide]", "values": [
      {"measurement": "ethylene oxide levels sufficient to kill biological surrogates (Bacillus atrophaeus) included with each load", "setting": "microbial decontamination barrel, each load", "value": "sufficient to kill 10^6 biological surrogates"},
      {"measurement": "sterilization of Bacillus atrophaeus spore strips contained in the Steritest", "setting": "seven 2-4 day cycles, 48.8 gallon barrel, 17.6 g EO ampoule, room temperature (around 20° C.), empty and paper loads", "value": "successfully sterilized"}
    ]}
  ]
}
